{"source": "paper PMC3639963", "about": "“A New Class of Small Molecule Inhibitor of BMP Signaling” (PLoS ONE, 2013)", "assay_in_all_cases": "Nanosyn kinase profiling", "type_in_all_cases": "biochemical", "details_in_all_cases": "read-out: Percentage inhibition; for inhibition at 0.1 µM: 0.1 µM inhibitor; for inhibition at 1 µM: 1 µM inhibitor", "key": {"SYK": {"biological_target": "T1, SYK (Homo sapiens, UniProt P43405)", "T1 construct": "purchased Nanosyn (enzymatic panel); SGC in-house recombinant human kinases (DSF panel); Invitrogen (ALK1-6)", "method_in_brief": "(§1)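 Percent inhibition of each kinase was measured with the inhibitor at 0.1 µM and at 1 µM, as part of a 200-kinase human selectivity panel.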"}, "MARK3": {"biological_target": "T2, MARK3 (Homo sapiens, UniProt P27448)", "T2 construct": "purchased Nanosyn (enzymatic panel); SGC in-house recombinant human kinases (DSF panel); Invitrogen (ALK1-6)", "method_in_brief": "as §1"}, "JAK1": {"biological_target": "T3, JAK1 (Homo sapiens, UniProt P23458)", "T3 construct": "purchased Nanosyn (enzymatic panel); SGC in-house recombinant human kinases (DSF panel); Invitrogen (ALK1-6)", "T3 sequence (P23458 whole entry)": "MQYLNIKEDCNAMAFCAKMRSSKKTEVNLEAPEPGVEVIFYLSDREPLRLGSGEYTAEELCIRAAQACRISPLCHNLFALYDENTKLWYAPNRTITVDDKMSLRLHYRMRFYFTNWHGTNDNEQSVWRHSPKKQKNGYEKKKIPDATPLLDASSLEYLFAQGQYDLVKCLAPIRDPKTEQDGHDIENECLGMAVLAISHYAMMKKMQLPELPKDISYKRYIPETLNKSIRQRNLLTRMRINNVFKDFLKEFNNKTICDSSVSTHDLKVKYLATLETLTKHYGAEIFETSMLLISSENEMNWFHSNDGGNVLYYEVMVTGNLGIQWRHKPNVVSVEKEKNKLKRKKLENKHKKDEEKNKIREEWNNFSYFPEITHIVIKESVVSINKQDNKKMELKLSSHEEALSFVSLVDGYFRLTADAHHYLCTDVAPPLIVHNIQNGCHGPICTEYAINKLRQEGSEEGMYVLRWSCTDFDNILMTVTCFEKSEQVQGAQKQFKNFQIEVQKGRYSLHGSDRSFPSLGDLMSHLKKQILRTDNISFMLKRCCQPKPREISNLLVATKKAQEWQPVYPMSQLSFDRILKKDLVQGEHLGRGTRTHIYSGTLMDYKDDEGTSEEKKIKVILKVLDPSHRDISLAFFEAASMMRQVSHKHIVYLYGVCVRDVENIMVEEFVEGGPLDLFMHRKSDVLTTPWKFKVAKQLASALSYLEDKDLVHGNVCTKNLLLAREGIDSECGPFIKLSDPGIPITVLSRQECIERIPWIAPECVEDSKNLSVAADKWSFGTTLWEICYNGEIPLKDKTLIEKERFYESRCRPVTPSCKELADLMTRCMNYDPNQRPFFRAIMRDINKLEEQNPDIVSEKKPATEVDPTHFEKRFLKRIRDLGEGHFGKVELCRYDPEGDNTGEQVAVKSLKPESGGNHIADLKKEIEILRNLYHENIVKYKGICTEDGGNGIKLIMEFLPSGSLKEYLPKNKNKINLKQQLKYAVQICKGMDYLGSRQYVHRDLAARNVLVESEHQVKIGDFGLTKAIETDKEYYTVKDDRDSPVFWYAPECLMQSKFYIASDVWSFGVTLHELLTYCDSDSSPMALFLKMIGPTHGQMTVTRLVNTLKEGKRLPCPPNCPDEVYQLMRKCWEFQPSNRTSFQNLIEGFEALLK", "method_in_brief": "as §1"}, "CAMK4": {"biological_target": "T4, CAMK4 (Homo sapiens, UniProt Q16566)", "T4 construct": "purchased Nanosyn (enzymatic panel); SGC in-house recombinant human kinases (DSF panel); Invitrogen (ALK1-6)", "T4 sequence (Q16566 1-473)": "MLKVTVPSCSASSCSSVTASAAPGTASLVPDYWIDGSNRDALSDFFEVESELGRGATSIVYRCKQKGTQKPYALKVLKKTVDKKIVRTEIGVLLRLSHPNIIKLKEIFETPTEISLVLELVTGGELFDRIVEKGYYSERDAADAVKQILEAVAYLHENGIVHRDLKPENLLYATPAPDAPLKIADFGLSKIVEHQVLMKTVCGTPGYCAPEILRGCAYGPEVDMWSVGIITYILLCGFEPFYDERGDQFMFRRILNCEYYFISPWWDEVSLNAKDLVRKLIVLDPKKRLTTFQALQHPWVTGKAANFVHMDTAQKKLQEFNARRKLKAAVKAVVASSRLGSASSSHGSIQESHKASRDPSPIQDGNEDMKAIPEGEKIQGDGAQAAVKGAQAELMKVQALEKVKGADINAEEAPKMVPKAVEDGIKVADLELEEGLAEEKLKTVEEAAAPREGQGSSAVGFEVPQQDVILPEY", "method_in_brief": "as §1"}, "YES": {"biological_target": "T5, YES (Homo sapiens, UniProt P07947)", "T5 construct": "purchased Nanosyn (enzymatic panel); SGC in-house recombinant human kinases (DSF panel); Invitrogen (ALK1-6)", "method_in_brief": "as §1"}, "NEK7": {"biological_target": "T6, NEK7 (Homo sapiens, UniProt Q8TDX7)", "T6 construct": "purchased Nanosyn (enzymatic panel); SGC in-house recombinant human kinases (DSF panel); Invitrogen (ALK1-6)", "T6 sequence (Q8TDX7 whole entry)": "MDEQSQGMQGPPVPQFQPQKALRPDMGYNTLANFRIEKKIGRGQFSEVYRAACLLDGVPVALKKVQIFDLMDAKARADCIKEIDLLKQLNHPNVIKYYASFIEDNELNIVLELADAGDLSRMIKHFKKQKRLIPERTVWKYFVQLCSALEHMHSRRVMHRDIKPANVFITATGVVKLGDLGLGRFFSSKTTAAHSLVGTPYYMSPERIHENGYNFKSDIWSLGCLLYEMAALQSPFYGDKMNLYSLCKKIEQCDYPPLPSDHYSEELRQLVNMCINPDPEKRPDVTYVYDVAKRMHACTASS", "method_in_brief": "as §1"}, "SPHK2": {"biological_target": "T7, SPHK2 (Homo sapiens, UniProt Q9NRA0)", "T7 construct": "purchased Nanosyn (enzymatic panel); SGC in-house recombinant human kinases (DSF panel); Invitrogen (ALK1-6)", "T7 sequence (Q9NRA0 1-654)": "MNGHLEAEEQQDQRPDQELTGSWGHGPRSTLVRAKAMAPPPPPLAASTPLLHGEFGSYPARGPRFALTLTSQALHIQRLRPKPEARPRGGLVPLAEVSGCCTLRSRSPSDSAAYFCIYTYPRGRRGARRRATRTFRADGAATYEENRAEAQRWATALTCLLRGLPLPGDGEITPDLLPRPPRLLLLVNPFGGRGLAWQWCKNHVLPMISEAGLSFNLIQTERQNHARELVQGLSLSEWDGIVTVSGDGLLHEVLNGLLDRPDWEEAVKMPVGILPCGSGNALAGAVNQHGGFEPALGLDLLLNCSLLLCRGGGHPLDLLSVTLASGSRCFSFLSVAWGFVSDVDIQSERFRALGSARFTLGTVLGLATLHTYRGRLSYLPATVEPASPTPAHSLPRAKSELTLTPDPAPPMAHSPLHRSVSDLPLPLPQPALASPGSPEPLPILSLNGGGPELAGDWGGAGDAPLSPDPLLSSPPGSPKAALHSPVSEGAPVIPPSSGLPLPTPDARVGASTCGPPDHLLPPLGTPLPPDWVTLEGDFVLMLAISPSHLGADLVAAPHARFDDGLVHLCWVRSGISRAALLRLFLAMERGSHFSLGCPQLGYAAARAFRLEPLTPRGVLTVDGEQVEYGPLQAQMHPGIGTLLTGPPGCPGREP", "method_in_brief": "as §1"}, "MSSK1": {"biological_target": "T8, MSSK1 (Homo sapiens, UniProt Q9UPE1)", "T8 construct": "purchased Nanosyn (enzymatic panel); SGC in-house recombinant human kinases (DSF panel); Invitrogen (ALK1-6)", "T8 sequence (Q9UPE1 whole entry)": "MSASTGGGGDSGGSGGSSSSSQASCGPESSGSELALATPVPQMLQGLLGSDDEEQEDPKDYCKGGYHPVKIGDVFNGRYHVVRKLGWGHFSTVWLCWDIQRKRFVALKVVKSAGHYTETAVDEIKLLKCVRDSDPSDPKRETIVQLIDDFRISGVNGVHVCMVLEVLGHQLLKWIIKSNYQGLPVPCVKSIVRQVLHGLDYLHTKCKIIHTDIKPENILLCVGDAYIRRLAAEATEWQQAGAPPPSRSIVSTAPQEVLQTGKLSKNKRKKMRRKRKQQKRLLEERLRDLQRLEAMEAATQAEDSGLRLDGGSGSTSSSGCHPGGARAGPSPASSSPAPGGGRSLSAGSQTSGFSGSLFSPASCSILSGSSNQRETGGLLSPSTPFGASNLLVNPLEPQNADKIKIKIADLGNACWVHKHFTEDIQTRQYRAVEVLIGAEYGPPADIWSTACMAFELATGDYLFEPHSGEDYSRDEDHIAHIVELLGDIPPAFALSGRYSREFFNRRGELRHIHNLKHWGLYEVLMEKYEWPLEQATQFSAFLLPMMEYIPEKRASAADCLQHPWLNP", "method_in_brief": "as §1"}, "MRCKα": {"biological_target": "T9, MRCKα (Homo sapiens, UniProt Q5VT25)", "T9 construct": "purchased Nanosyn (enzymatic panel); SGC in-house recombinant human kinases (DSF panel); Invitrogen (ALK1-6)", "method_in_brief": "as §1"}, "EGFR": {"biological_target": "T10, EGFR (Homo sapiens, UniProt P00533)", "T10 construct": "purchased Nanosyn (enzymatic panel); SGC in-house recombinant human kinases (DSF panel); Invitrogen (ALK1-6)", "T10 sequence (P00533 25-1210)": "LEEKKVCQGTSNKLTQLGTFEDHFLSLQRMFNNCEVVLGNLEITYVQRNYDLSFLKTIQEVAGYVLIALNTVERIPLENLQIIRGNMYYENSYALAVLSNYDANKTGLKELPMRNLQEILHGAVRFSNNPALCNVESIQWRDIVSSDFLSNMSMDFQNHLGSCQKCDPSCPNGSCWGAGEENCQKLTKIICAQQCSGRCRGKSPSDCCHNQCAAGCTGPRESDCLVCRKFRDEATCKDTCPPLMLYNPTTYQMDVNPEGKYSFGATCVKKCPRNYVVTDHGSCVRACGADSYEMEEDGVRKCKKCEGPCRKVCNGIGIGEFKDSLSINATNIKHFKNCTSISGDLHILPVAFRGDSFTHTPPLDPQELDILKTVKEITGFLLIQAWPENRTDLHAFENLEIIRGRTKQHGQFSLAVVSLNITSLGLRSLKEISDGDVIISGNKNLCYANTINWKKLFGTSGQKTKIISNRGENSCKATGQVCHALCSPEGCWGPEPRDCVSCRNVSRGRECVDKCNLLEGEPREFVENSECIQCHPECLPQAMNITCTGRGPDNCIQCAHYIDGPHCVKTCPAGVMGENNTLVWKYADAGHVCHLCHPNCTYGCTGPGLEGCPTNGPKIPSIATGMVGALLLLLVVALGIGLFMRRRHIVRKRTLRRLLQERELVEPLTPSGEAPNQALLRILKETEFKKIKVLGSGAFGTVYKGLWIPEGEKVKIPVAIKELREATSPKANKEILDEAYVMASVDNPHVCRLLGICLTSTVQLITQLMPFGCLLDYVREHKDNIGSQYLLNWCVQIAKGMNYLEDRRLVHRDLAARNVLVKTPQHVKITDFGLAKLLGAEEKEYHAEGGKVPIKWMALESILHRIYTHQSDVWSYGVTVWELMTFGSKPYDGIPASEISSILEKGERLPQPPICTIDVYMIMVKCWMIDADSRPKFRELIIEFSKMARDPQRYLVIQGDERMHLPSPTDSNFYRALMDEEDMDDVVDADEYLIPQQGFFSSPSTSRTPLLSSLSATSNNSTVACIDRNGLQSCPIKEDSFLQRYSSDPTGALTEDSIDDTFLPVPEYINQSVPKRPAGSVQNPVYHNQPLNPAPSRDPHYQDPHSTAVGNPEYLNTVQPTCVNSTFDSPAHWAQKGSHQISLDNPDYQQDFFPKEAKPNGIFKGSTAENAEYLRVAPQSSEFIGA", "method_in_brief": "as §1"}, "HIPK1": {"biological_target": "T11, HIPK1 (Homo sapiens, UniProt Q86Z02)", "T11 construct": "purchased Nanosyn (enzymatic panel); SGC in-house recombinant human kinases (DSF panel); Invitrogen (ALK1-6)", "T11 sequence (Q86Z02 whole entry)": "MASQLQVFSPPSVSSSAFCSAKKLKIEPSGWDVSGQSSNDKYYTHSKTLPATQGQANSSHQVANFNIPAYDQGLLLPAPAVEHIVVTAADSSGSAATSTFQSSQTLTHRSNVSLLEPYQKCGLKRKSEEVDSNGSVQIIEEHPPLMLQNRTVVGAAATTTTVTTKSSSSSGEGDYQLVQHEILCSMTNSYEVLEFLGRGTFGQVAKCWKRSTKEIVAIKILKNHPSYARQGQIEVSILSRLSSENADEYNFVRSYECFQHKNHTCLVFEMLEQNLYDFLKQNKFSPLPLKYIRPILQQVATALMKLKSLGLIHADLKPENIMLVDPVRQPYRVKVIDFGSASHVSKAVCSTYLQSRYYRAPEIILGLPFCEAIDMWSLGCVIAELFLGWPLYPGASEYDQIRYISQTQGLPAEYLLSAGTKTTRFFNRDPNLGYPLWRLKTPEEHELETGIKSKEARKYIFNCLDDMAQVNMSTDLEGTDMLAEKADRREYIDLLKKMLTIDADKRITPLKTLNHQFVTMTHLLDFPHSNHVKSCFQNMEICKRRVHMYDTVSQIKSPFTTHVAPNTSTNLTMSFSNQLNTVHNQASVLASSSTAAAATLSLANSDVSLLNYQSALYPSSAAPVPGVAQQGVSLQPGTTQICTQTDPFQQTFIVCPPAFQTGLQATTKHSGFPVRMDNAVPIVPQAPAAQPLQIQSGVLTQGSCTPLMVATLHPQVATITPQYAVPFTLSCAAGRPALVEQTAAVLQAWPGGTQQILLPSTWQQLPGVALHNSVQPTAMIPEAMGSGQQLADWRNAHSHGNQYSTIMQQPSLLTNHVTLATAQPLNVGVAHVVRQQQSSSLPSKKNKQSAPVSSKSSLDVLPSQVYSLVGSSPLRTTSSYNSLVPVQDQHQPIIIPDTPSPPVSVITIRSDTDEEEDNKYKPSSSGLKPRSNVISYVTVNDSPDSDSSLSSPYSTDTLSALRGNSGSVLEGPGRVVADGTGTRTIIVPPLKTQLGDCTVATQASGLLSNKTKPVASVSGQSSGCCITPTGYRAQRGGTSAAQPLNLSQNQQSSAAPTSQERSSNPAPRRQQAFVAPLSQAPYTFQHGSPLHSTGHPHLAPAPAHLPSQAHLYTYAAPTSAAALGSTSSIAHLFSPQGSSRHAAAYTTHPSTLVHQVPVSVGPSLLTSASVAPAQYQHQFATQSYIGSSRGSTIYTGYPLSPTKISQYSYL", "method_in_brief": "as §1"}, "EPHA2": {"biological_target": "T12, EPHA2 (Homo sapiens, UniProt P29317)", "T12 construct": "purchased Nanosyn (enzymatic panel); SGC in-house recombinant human kinases (DSF panel); Invitrogen (ALK1-6)", "method_in_brief": "as §1"}, "CHEK1": {"biological_target": "T13, CHEK1 (Homo sapiens, UniProt O14757)", "T13 construct": "purchased Nanosyn (enzymatic panel); SGC in-house recombinant human kinases (DSF panel); Invitrogen (ALK1-6)", "T13 sequence (O14757 1-476)": "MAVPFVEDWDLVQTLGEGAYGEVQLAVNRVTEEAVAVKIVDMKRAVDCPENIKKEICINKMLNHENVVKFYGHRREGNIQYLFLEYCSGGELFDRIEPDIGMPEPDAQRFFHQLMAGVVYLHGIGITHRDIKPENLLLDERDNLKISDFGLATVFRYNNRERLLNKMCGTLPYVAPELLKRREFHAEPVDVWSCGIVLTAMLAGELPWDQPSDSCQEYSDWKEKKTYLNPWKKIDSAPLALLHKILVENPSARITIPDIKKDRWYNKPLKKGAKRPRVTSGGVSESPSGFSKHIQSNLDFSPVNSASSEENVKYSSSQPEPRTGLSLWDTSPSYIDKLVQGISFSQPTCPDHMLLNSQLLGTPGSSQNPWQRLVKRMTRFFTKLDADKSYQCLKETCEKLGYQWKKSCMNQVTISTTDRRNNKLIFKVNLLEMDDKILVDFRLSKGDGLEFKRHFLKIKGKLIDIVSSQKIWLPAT", "method_in_brief": "as §1"}, "BTK": {"biological_target": "T14, BTK (Homo sapiens, UniProt Q06187)", "T14 construct": "purchased Nanosyn (enzymatic panel); SGC in-house recombinant human kinases (DSF panel); Invitrogen (ALK1-6)", "method_in_brief": "as §1"}, "SRC": {"biological_target": "T15, SRC (Homo sapiens, UniProt P12931)", "T15 construct": "purchased Nanosyn (enzymatic panel); SGC in-house recombinant human kinases (DSF panel); Invitrogen (ALK1-6)", "T15 sequence (P12931 whole entry)": "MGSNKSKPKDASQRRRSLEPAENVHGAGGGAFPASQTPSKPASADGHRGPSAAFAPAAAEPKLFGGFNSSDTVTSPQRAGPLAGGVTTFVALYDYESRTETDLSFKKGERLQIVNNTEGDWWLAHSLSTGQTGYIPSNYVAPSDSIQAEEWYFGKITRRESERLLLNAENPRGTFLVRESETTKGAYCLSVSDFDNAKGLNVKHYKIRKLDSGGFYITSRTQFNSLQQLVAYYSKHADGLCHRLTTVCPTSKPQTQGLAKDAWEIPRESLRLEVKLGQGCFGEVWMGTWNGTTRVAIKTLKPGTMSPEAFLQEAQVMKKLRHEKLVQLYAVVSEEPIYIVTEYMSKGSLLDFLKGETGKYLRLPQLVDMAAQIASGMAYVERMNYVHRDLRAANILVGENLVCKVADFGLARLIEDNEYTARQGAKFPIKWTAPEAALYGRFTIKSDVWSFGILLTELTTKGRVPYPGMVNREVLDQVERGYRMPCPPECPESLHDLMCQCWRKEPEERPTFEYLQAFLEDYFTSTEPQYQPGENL", "method_in_brief": "as §1"}}, "data": [{"compound": "COc1cc(-c2cc(-c3cccc(O)c3)cnc2N)cc(OC)c1OC", "note": "[K02288, 3-[6-amino-5-(3,4,5-trimethoxy-phenyl)-pyridin-3-yl]-phenol]", "values": [{"measurement": "inhibition at 0.1 µM", "setting": "SYK", "result": 0, "unit": "%"}, {"measurement": "inhibition at 1 µM", "setting": "SYK", "result": -2, "unit": "%"}, {"measurement": "inhibition at 0.1 µM", "setting": "MARK3", "result": 2.6, "unit": "%"}, {"measurement": "inhibition at 1 µM", "setting": "MARK3", "result": 5.6, "unit": "%"}, {"measurement": "inhibition at 0.1 µM", "setting": "JAK1", "result": 0, "unit": "%"}, {"measurement": "inhibition at 1 µM", "setting": "JAK1", "result": 0.4, "unit": "%"}, {"measurement": "inhibition at 0.1 µM", "setting": "CAMK4", "result": -1, "unit": "%"}, {"measurement": "inhibition at 1 µM", "setting": "CAMK4", "result": -1, "unit": "%"}, {"measurement": "inhibition at 0.1 µM", "setting": "YES", "result": 4.9, "unit": "%"}, {"measurement": "inhibition at 1 µM", "setting": "YES", "result": 34, "unit": "%"}, {"measurement": "inhibition at 0.1 µM", "setting": "NEK7", "result": 0.2, "unit": "%"}, {"measurement": "inhibition at 1 µM", "setting": "NEK7", "result": -3, "unit": "%"}, {"measurement": "inhibition at 0.1 µM", "setting": "SPHK2", "result": -2, "unit": "%"}, {"measurement": "inhibition at 1 µM", "setting": "SPHK2", "result": 4.4, "unit": "%"}, {"measurement": "inhibition at 0.1 µM", "setting": "MSSK1", "result": 1.8, "unit": "%"}, {"measurement": "inhibition at 1 µM", "setting": "MSSK1", "result": 0, "unit": "%"}, {"measurement": "inhibition at 0.1 µM", "setting": "MRCKα", "result": 2, "unit": "%"}, {"measurement": "inhibition at 1 µM", "setting": "MRCKα", "result": 6.9, "unit": "%"}, {"measurement": "inhibition at 0.1 µM", "setting": "EGFR", "result": 2.4, "unit": "%"}, {"measurement": "inhibition at 1 µM", "setting": "EGFR", "result": 12, "unit": "%"}, {"measurement": "inhibition at 0.1 µM", "setting": "HIPK1", "result": 1.7, "unit": "%"}, {"measurement": "inhibition at 1 µM", "setting": "HIPK1", "result": 3.1, "unit": "%"}, {"measurement": "inhibition at 0.1 µM", "setting": "EPHA2", "result": -2, "unit": "%"}, {"measurement": "inhibition at 1 µM", "setting": "EPHA2", "result": 3, "unit": "%"}, {"measurement": "inhibition at 0.1 µM", "setting": "CHEK1", "result": -1, "unit": "%"}, {"measurement": "inhibition at 1 µM", "setting": "CHEK1", "result": -2, "unit": "%"}, {"measurement": "inhibition at 0.1 µM", "setting": "BTK", "result": 0.5, "unit": "%"}, {"measurement": "inhibition at 1 µM", "setting": "BTK", "result": 6.6, "unit": "%"}, {"measurement": "inhibition at 0.1 µM", "setting": "SRC", "result": 5.1, "unit": "%"}, {"measurement": "inhibition at 1 µM", "setting": "SRC", "result": 40, "unit": "%"}]}, {"compound": "c1ccc2c(-c3cnn4cc(-c5ccc(N6CCNCC6)cc5)cnc34)ccnc2c1", "note": "[LDN-193189]", "values": [{"measurement": "inhibition at 0.1 µM", "setting": "SYK", "result": -1, "unit": "%"}, {"measurement": "inhibition at 1 µM", "setting": "SYK", "result": -12, "unit": "%"}, {"measurement": "inhibition at 0.1 µM", "setting": "MARK3", "result": 11, "unit": "%"}, {"measurement": "inhibition at 1 µM", "setting": "MARK3", "result": 63, "unit": "%"}, {"measurement": "inhibition at 0.1 µM", "setting": "JAK1", "result": 2.7, "unit": "%"}, {"measurement": "inhibition at 1 µM", "setting": "JAK1", "result": 4.2, "unit": "%"}, {"measurement": "inhibition at 0.1 µM", "setting": "CAMK4", "result": 0.1, "unit": "%"}, {"measurement": "inhibition at 1 µM", "setting": "CAMK4", "result": 0, "unit": "%"}, {"measurement": "inhibition at 0.1 µM", "setting": "YES", "result": 12, "unit": "%"}, {"measurement": "inhibition at 1 µM", "setting": "YES", "result": 50, "unit": "%"}, {"measurement": "inhibition at 0.1 µM", "setting": "NEK7", "result": 7.9, "unit": "%"}, {"measurement": "inhibition at 1 µM", "setting": "NEK7", "result": 1.7, "unit": "%"}, {"measurement": "inhibition at 0.1 µM", "setting": "SPHK2", "result": -1, "unit": "%"}, {"measurement": "inhibition at 1 µM", "setting": "SPHK2", "result": -3, "unit": "%"}, {"measurement": "inhibition at 0.1 µM", "setting": "MSSK1", "result": -3, "unit": "%"}, {"measurement": "inhibition at 1 µM", "setting": "MSSK1", "result": 1.5, "unit": "%"}, {"measurement": "inhibition at 0.1 µM", "setting": "MRCKα", "result": 0.8, "unit": "%"}, {"measurement": "inhibition at 1 µM", "setting": "MRCKα", "result": 6.8, "unit": "%"}, {"measurement": "inhibition at 0.1 µM", "setting": "EGFR", "result": 1.5, "unit": "%"}, {"measurement": "inhibition at 1 µM", "setting": "EGFR", "result": 4.8, "unit": "%"}, {"measurement": "inhibition at 0.1 µM", "setting": "HIPK1", "result": 0.6, "unit": "%"}, {"measurement": "inhibition at 1 µM", "setting": "HIPK1", "result": 4.4, "unit": "%"}, {"measurement": "inhibition at 0.1 µM", "setting": "EPHA2", "result": -2, "unit": "%"}, {"measurement": "inhibition at 1 µM", "setting": "EPHA2", "result": -3, "unit": "%"}, {"measurement": "inhibition at 0.1 µM", "setting": "CHEK1", "result": 2.9, "unit": "%"}, {"measurement": "inhibition at 1 µM", "setting": "CHEK1", "result": 0.3, "unit": "%"}, {"measurement": "inhibition at 0.1 µM", "setting": "BTK", "result": 0.5, "unit": "%"}, {"measurement": "inhibition at 1 µM", "setting": "BTK", "result": 1.8, "unit": "%"}, {"measurement": "inhibition at 0.1 µM", "setting": "SRC", "result": 8, "unit": "%"}, {"measurement": "inhibition at 1 µM", "setting": "SRC", "result": 33, "unit": "%"}]}]}
